Experimental data reported in ChEMBL document CHEMBL5465560, “Selectivity Literature for EUbOPEN Chemogenomic Library” (2024).
Each block holds one compound with its values, some of them ahead of it.

What was measured:
[1] = biological target: Glycogen synthase kinase-3 alpha (Homo sapiens, UniProt P49840); details: at 10 µM
[2] = biological target: Serine/threonine-protein kinase MRCK beta (Homo sapiens) (UniProt Q9Y5S2); test: Selectivity interaction (Ambit KINOMEscan and KiNATiv profiling in Jurkat cells) EUB0000090b CDC42BPB; type: cell-based; details: at 1 µM
[3] = biological target: Dual specificity protein kinase CLK1 (Homo sapiens, UniProt P49759); test: Selectivity interaction (KinomeScan (DiscoverX)) EUB0000655a CLK1; details: at 10 µM
[4] = biological target: Serine/threonine-protein kinase PAK 2 (Homo sapiens) (UniProt Q13177); test: Selectivity interaction (Upstate Kinase Profiler service (Millipore)) EUB0000056c PAK2; details: at 1 µM
[5] = biological target: T1, SNF-related serine/threonine-protein kinase (Homo sapiens) (UniProt Q9NRH2); test: Selectivity interaction (Kinase panel (KiNativ target engagement assay in Jurkat cells)) EUB0001635a SNRK; type: cell-based; details: at 1 µM
T1 sequence (whole entry): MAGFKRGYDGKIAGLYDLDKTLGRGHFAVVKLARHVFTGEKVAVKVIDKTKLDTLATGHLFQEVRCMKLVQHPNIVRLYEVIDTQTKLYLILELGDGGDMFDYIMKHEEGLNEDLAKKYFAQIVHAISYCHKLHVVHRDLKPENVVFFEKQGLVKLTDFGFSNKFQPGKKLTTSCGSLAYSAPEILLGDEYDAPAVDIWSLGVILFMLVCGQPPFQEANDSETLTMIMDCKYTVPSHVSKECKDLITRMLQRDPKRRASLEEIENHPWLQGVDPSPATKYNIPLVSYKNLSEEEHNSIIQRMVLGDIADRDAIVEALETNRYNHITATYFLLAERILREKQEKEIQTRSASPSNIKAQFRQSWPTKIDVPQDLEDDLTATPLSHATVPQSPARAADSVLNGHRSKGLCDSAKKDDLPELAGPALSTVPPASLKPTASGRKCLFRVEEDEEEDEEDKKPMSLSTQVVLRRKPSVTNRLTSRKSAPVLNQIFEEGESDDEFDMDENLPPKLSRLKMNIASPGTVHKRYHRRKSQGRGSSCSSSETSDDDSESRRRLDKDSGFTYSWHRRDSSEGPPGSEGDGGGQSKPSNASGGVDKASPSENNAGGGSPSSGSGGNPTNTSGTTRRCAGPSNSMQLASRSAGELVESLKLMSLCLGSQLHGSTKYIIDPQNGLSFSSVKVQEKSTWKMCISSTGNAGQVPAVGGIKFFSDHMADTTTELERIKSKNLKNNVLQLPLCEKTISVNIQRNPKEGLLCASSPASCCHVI

[6] = biological target: T2, Hormonally up-regulated neu tumor-associated kinase (Homo sapiens) (UniProt P57058); details: at 10 µM
T2 sequence (whole entry): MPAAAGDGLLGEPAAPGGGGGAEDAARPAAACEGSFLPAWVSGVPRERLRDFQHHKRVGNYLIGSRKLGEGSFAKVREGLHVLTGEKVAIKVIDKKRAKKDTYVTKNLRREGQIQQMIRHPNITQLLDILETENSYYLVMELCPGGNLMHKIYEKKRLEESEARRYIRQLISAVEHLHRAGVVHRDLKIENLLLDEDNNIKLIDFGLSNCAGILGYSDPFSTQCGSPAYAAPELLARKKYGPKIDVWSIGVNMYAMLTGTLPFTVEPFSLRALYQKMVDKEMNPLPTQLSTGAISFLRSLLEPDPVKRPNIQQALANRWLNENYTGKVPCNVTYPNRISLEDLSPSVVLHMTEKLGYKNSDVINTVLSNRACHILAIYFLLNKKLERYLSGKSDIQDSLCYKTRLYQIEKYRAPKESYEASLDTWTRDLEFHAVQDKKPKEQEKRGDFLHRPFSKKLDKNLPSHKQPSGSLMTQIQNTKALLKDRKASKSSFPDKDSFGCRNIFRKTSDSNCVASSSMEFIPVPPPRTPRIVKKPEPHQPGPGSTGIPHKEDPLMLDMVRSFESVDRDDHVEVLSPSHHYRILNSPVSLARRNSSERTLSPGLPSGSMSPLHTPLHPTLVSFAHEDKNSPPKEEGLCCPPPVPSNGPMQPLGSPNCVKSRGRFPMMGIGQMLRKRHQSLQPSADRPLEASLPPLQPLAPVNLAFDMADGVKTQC

[7] = biological target: Ribosomal protein S6 kinase alpha-1 (Homo sapiens, UniProt Q15418); test: Selectivity interaction (ActivX KiNativ screen (kinase selectivity in THP-1 cell lysates)) EUB0000639a RPS6KA1; type: subcellular; details: lysate, at 0.01 µM
[8] = biological target: T3, Serine/threonine-protein kinase TAO3 (Homo sapiens) (UniProt Q9H2K8); test: Selectivity interaction (Kinase panel (Invitrogen)) EUB0000639a TAOK3; details: at 200 nM
T3 sequence (whole entry): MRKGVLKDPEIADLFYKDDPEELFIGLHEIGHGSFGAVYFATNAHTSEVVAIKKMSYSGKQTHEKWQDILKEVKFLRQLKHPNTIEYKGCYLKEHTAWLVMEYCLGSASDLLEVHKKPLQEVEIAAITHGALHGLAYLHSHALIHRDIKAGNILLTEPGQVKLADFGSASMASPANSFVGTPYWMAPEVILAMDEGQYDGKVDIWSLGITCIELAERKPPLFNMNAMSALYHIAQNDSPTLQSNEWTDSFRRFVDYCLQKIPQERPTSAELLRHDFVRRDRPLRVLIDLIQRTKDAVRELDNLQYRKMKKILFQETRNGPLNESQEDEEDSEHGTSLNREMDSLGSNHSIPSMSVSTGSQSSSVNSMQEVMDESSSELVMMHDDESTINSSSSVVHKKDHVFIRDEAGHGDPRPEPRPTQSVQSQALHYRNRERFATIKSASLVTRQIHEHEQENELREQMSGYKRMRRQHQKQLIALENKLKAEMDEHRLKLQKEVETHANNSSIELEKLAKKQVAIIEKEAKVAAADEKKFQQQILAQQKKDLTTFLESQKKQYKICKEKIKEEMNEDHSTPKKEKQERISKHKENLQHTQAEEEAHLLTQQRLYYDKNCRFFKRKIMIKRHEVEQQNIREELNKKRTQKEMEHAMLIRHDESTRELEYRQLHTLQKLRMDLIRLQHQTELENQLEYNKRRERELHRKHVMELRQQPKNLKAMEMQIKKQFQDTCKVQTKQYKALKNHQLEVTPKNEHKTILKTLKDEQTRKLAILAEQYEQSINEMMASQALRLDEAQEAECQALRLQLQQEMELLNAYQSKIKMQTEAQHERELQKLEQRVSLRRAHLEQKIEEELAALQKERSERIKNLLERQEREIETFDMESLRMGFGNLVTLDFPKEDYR

[9] = biological target: Fibroblast growth factor receptor 4 (Homo sapiens, UniProt P22455); test: Selectivity interaction (KinomeScan (DiscoverX)) EUB0000666a FGFR4; details: at 10 µM
Chain of Fibroblast growth factor receptor 4 (P22455 22-802 limits assumed): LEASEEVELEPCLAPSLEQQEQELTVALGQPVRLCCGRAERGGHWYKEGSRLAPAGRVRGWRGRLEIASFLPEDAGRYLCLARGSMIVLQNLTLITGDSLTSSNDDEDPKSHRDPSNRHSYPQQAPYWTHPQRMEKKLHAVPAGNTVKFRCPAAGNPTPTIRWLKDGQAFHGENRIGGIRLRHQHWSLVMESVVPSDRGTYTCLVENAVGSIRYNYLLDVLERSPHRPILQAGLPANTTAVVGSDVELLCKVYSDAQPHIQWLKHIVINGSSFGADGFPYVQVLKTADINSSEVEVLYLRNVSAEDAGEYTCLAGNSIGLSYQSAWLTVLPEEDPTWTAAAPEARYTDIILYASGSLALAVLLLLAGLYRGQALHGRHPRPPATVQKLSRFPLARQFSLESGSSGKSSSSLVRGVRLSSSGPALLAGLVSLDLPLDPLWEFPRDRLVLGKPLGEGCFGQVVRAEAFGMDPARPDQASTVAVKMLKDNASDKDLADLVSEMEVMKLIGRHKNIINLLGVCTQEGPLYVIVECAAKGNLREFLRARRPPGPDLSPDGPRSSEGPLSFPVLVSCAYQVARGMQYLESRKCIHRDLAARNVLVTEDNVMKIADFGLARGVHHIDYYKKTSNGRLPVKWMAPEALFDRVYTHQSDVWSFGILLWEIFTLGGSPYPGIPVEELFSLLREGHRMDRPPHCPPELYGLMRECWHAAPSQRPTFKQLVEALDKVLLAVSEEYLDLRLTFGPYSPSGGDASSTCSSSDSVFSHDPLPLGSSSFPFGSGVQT

Chain of Glycogen synthase kinase-3 alpha (P49840 2-483 limits assumed): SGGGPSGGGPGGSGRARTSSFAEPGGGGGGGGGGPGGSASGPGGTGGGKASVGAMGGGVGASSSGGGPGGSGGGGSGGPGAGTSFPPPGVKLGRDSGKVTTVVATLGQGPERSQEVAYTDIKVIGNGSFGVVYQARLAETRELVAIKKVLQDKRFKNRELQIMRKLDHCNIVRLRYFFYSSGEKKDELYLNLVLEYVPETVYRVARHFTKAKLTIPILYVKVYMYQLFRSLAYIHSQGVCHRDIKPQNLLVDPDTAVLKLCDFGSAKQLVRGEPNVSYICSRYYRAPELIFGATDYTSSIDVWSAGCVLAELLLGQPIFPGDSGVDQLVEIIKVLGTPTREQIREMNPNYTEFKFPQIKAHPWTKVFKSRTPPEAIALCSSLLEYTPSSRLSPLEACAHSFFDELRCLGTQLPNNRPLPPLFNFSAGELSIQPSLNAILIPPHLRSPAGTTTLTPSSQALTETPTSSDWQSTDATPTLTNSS
Chain of Ribosomal protein S6 kinase alpha-1 (Q15418 whole entry): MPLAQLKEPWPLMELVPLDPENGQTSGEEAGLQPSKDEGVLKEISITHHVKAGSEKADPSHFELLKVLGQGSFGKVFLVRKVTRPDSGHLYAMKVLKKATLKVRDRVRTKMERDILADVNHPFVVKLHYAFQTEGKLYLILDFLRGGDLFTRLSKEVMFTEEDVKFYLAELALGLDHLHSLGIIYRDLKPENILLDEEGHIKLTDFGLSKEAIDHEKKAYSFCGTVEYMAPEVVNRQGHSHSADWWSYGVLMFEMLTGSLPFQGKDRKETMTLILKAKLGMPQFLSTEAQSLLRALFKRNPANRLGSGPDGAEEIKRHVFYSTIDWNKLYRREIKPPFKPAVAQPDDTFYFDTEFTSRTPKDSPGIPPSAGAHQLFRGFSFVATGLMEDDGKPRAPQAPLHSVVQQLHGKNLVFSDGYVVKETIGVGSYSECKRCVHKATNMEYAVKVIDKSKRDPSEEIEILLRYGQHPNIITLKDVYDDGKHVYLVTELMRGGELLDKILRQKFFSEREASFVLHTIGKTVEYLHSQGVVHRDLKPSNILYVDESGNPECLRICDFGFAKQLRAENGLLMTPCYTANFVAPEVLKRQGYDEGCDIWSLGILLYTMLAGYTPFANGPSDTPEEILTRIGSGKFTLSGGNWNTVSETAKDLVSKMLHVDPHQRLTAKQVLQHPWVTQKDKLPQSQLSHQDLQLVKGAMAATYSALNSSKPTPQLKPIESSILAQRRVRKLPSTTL
Chain of Serine/threonine-protein kinase PAK 2 (Homo sapiens) (Q13177 whole entry): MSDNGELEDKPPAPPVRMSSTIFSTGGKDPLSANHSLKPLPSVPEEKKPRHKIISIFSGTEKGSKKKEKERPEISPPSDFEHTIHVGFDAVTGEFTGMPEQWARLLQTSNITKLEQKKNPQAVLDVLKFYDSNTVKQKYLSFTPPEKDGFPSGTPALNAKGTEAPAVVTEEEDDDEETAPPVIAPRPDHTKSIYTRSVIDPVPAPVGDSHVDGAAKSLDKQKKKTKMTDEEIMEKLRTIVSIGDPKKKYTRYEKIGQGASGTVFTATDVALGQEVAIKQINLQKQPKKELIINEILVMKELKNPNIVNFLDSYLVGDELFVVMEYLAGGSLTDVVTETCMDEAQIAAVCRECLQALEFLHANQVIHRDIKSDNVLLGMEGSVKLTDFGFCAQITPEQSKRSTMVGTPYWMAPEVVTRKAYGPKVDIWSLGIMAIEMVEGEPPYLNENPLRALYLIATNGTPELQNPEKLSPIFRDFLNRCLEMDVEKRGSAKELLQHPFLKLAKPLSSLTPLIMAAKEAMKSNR
Chain of Serine/threonine-protein kinase MRCK beta (Homo sapiens) (Q9Y5S2 whole entry): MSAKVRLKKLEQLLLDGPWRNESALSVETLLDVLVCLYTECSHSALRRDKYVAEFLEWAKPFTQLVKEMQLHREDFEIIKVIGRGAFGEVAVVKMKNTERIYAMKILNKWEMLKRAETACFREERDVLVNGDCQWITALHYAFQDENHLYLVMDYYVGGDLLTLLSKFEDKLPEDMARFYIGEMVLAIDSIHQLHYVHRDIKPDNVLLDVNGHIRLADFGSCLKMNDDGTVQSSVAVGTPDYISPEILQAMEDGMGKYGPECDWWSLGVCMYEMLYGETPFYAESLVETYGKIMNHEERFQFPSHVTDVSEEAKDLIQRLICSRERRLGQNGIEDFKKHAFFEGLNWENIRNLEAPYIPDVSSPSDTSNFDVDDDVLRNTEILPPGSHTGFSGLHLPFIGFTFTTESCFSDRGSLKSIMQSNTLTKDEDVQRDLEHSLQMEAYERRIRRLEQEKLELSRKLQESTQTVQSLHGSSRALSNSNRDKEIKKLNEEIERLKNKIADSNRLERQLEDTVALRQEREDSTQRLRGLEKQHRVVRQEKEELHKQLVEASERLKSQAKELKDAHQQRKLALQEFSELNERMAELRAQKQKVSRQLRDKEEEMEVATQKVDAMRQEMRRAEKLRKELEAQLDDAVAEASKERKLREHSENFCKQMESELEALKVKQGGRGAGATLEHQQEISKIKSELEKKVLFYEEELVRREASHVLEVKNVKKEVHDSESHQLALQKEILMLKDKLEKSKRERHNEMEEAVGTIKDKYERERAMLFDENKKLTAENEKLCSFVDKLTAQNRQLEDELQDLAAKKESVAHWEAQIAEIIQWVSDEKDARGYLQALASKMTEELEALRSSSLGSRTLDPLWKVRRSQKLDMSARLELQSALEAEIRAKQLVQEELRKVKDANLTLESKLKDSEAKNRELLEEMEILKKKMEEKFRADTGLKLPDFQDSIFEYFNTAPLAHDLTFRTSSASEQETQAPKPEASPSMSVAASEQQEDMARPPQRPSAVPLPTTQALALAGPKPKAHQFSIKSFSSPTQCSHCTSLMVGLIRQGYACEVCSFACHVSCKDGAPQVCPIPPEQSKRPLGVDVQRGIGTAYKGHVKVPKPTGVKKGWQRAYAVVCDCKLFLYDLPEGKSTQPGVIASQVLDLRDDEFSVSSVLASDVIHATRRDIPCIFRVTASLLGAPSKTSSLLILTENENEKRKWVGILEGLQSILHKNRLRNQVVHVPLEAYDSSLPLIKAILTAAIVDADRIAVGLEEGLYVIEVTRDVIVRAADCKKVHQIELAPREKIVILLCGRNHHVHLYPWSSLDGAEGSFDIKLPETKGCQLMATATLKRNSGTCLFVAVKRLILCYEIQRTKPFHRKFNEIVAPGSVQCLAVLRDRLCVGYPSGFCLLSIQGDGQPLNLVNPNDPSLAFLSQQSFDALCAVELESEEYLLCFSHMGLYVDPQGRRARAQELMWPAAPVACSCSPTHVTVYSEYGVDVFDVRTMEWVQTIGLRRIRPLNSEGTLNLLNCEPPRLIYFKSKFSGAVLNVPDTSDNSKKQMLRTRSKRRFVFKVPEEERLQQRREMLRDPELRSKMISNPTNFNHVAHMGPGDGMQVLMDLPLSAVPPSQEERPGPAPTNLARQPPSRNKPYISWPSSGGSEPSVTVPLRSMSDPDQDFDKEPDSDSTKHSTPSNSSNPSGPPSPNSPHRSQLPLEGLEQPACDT
Chain of Dual specificity protein kinase CLK1 (P49759 whole entry, looked up): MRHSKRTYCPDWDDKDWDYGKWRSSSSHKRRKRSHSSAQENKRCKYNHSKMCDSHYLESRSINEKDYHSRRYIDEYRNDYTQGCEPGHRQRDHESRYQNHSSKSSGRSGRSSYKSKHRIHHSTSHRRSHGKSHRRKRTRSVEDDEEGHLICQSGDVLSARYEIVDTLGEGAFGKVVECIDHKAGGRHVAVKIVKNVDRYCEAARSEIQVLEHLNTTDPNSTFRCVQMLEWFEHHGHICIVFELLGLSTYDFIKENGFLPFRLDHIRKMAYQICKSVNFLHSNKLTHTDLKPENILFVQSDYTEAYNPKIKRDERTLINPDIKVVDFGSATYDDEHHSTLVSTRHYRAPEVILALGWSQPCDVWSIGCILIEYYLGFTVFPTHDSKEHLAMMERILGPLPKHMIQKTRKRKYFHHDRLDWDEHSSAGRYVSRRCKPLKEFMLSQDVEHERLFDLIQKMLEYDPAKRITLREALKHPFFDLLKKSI

% of control [1]: 100%
SMILES: CCN(CC)CCCCNc1ncc2cc(-c3cc(OC)cc(OC)c3)c(NC(=O)NC(C)(C)C)nc2n1

SMILES: CN(C)C/C=C/C(=O)Nc1ccc(C(=O)N2CCCC(Nc3ncc(Cl)c(-c4c[nH]c5ccccc45)n3)C2)cc1 (stereo not given)
% of control [2]: 96%

SMILES: CN(C)CCOc1ccc(-c2nc(-c3ccncc3)c(-c3ccc4c(c3)CC/C4=N\O)[nH]2)cc1
% of control [3]: 77%

% of inhibition [4]: 37%
SMILES: Cc1ccc(-c2ccc3c(ccc4sc5c(c43)NC[C@@H](C)NC5=O)n2)cn1

SMILES: C=CC(=O)Nc1ccc(C(=O)Nc2[nH]nc3c2CN(C(=O)N[C@H](CN(C)C)c2ccccc2)C3(C)C)cc1
% of engagement ([5]; Selectivity number of off-targets 0.0, Selectivity number of targets 233.0, Source Knowledge https://www.sciencedirect.com/science/article/pii/S2451945619300674?via%3Dihub): 6.9%
% of engagement [5]: 30.4%

SMILES: Cc1cc([C@@H](C)Nc2ccccc2C(=O)O)c2nc(N3CCOCC3)cc(=O)n2c1 [AZD-6482]
% of control [6]: 81%

% of inhibition [7]: 3.6%
% of inhibition [8]: -1.02%
SMILES: CC[C@@H]1[C@H](F)C(=O)N[C@@H]1COc1nccc2cc(C(N)=O)c(OC)cc12 [ZIMLOVISERTIB]

SMILES: O=C(NOC[C@H](O)CO)c1ccc(F)c(F)c1Nc1ccc(I)cc1F
% of control [9]: 54%
